Source: PubChem BioAssay AID1963967 (Molecular Pharmacology Branch, DTP, NCI, 2024)

System: 855422-203-R-J1-PDC spheroids with HUVEC/MSC, viability
Assay: Anticancer human tumor 855422-203-R-J1-PDC patient-derived bladder carcinoma cell line growth inhibition [PI3K]
Conditions: for IC50: curve of first compound; for viability, T/C: stronger effect = lower value
From the text: Combinatorial screen of targeted agents with the PI3K inhibitors inavolisib, alpelisib, duvelisib, and copanlisib in multi-cell type tumor spheroids
A high-throughput screen of multi-cell type tumor spheroids was designed to identify active combinations of targeted small molecules and PI3K pathway inhibitors. Complex spheroids include a stromal component modeled by human endothelial cells (HUVEC) and fibroblasts modeled by human mesenchymal stem cells (MSCs). The concentration ranges selected for each drug and investigational agent were based upon clinically achievable concentrations if the clinical Cmax of the agent was known.
Compounds. The drugs and investigational agents: inavolisib (NSC800729), alpelisib (NSC765974), duvelisib (NSC772469), copanlisib (NSC816437), ipatasertib (NSC767898), afuresertib (NSC778305), talazoparib (NSC767125), sapanisertib (NSC764658), selumetinib (NSC741078), tovorafenib (DAY101, NSC766906), vemurafenib (NSC761431), ravoxertinib (NSC781343), sotorasib (NSC818433), MRTX1133 (NSC 836407), abemaciclib (NSC 768073), palbociclib (NSC758247), venetoclax (NSC 766270), SY5609 (NSC837396), enzalutamide (NSC755605), and darolutamide (NSC825331), were obtained from the National Cancer Institute (NCI) Developmental Therapeutics Program Chemical Repository. The FDA-approved anticancer drug set is available from the NCI Developmental Therapeutics Program. […] The stock solutions were prepared in dimethyl sulfoxide (DMSO, Sigma-Aldrich, St. Louis, MO, cat. D2650) at 800-fold the tested concentration and stored at -70 degrees C prior to their use. All drugs and investigational agents were tested over a range starting from a high concentration at or near the clinical Cmax and decreasing in half-log increments. If the clinical Cmax for an agent had not been determined, the highest concentration tested was 10 microM.
Cell Culture. All cells were maintained in an incubator at 37 degrees C and 5% CO2 with 95% humidity. The PDC lines were cultured according to standard operating procedures established by the NCI PDMR (https://pdmr.cancer.gov/sops/default.htm). All PDCs were thawed and cultured in Matrigel-coated flasks prepared with a working solution of 1X Ham's F-12 nutrient mix, without supplementation (Invitrogen, Waltham, MA, cat. 11765054), 100 U/mL penicillin-streptomycin (Invitrogen, cat. 15140122), and 2.5% Matrigel (Corning Inc., Corning, NY, cat. 354248) for the first three passages. The 354836-022-R-J1-PDC, 475296-252-R-J1-PDC, and 997726-040-R-J2-PDC lines were cultured in 6A media, which includes advanced DMEM/F-12 (Thermo Fisher Scientific, cat. 12634028), 10 mM HEPES (Thermo Fisher Scientific, cat. 15630080), 1X GlutaMAX supplement (Thermo Fisher Scientific, cat. 35050061), 0.1 mg/mL primocin (InvivoGen, San Diego, CA, cat. ant-pm-2), 10% defined fetal bovine serum, heat inactivated (HyClone Laboratories Inc., Logan, UT, cat. SH30070.03HI), 50% L-WRN conditioned media (ATCC, cat. CRL-3276), 1.25 mM N-Acetyl-L-cysteine (Sigma-Aldrich, cat. A9165), 10 mM nicotinamide (Sigma-Aldrich, cat. N0636), 1X B-27 supplement (Thermo Fisher Scientific, cat. 17504044), 1X N-2 supplement (Thermo Fisher Scientific, cat. 17502048), and 10 microM Y-27632 dihydrochloride (Tocris Bioscience, Bristol, United Kingdom, cat. 1254). The 624824-186-R-J2-PDC line was cultured in 6C/Colon 1B media, which includes all 6A media components plus 50 ng/mL human EGF recombinant protein (Thermo Fisher Scientific, cat. PHG0311). […]

[1] = second compound 0.00316 µM, first compound 0.0316 µM
[2] = second compound 0.00316 µM, first compound 0.1 µM
[3] = second compound 0.01 µM, first compound 0.0316 µM
[4] = second compound 0.01 µM, first compound 0.1 µM
[5] = second compound 0.0316 µM, first compound 0.0316 µM
[6] = second compound 0.0316 µM, first compound 0.1 µM
[7] = second compound 0.1 µM, first compound 0.0316 µM
[8] = second compound 0.1 µM, first compound 0.1 µM
[9] = second compound 0.316 µM, first compound 0.0316 µM
[10] = second compound 0.316 µM, first compound 0.1 µM
[11] = second compound 1 µM, first compound 0.0316 µM
[12] = second compound 1 µM, first compound 0.1 µM
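Also: agents incubated with spheroids for one week before read-out.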
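For viability, T/C in this document: 100% = DMSO vehicle-treated control wells.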

With `CC(C)n1nc(-c2ccc3oc(N)nc3c2)c2c(N)ncnc21` + COc1c(OCCCN2CCOCC2)ccc2c3n(c(=NC(=O)c4cnc(N)nc4)nc12)CCN3 the IC50 (second compound 0.00316 µM) was 0.047 µM, the IC50 (second compound 0.01 µM) was 0.0313 µM and the IC50 (second compound 0.0316 µM) was 0.0106 µM. The IC50 (second compound 0.1 µM) was under 0.000316 µM, the IC50 (second compound 0.316 µM) was under 0.000316 µM and the IC50 (second compound 1 µM) was under 0.000316 µM. For the same compound, the viability, T/C (second compound 0.00316 µM, first compound 0.000316 µM) was 106%, the viability, T/C (second compound 0.00316 µM, first compound 0.001 µM) was 88.3% and the viability, T/C (second compound 0.00316 µM, first compound 0.00316 µM) was 94.4%. It also gave a viability, T/C (second compound 0.00316 µM, first compound 0.01 µM) of 81.5%, a viability, T/C [1] of 72.6% and a viability, T/C [2] of 14.6%. It also gave a viability, T/C (second compound 0.01 µM, first compound 0.000316 µM) of 89.6%, a viability, T/C (second compound 0.01 µM, first compound 0.001 µM) of 87.7% and a viability, T/C (second compound 0.01 µM, first compound 0.00316 µM) of 90.3%. For the same compound, the viability, T/C (second compound 0.01 µM, first compound 0.01 µM) was 86.5%, the viability, T/C [3] was 49.7% and the viability, T/C [4] was 10.4%. For the same compound, the viability, T/C (second compound 0.0316 µM, first compound 0.000316 µM) was 72.1%, the viability, T/C (second compound 0.0316 µM, first compound 0.001 µM) was 68.8% and the viability, T/C (second compound 0.0316 µM, first compound 0.00316 µM) was 56.8%. For the same compound, the viability, T/C (second compound 0.0316 µM, first compound 0.01 µM) was 53%, the viability, T/C [5] was 34.5% and the viability, T/C [6] was 7.16%. It also gave a viability, T/C (second compound 0.1 µM, first compound 0.000316 µM) of 33.4%, a viability, T/C (second compound 0.1 µM, first compound 0.001 µM) of 30.8% and a viability, T/C (second compound 0.1 µM, first compound 0.00316 µM) of 33.1%. It also gave a viability, T/C (second compound 0.1 µM, first compound 0.01 µM) of 29.3%, a viability, T/C [7] of 19.1% and a viability, T/C [8] of 4.35%. For the same compound, the viability, T/C (second compound 0.316 µM, first compound 0.000316 µM) was 11.2%, the viability, T/C (second compound 0.316 µM, first compound 0.001 µM) was 10.2% and the viability, T/C (second compound 0.316 µM, first compound 0.00316 µM) was 9.76%. It also gave a viability, T/C (second compound 0.316 µM, first compound 0.01 µM) of 9.27%, a viability, T/C [9] of 5.64% and a viability, T/C [10] of 2.5%. The viability, T/C (second compound 1 µM, first compound 0.000316 µM) was 5.23%, the viability, T/C (second compound 1 µM, first compound 0.001 µM) was 5.41% and the viability, T/C (second compound 1 µM, first compound 0.00316 µM) was 4.21%. The viability, T/C (second compound 1 µM, first compound 0.01 µM) was 4.46%, the viability, T/C [11] was 3.47% and the viability, T/C [12] was 1.3%.

Compound `C=CC(=O)N1CCN(c2nc(=O)n(-c3c(C)ccnc3C(C)C)c3nc(-c4c(O)cccc4F)c(F)cc23)C(C)C1` (centres undefined) + COc1c(OCCCN2CCOCC2)ccc2c3n(c(=NC(=O)c4cnc(N)nc4)nc12)CCN3 has an IC50 (second compound 0.00316 µM) of over 10 µM, an IC50 (second compound 0.01 µM) of over 10 µM and an IC50 (second compound 0.0316 µM) of over 10 µM. It also gave an IC50 (second compound 0.1 µM) of under 0.0316 µM, an IC50 (second compound 0.316 µM) of under 0.0316 µM and an IC50 (second compound 1 µM) of under 0.0316 µM. It also gave a viability, T/C [1] of 94%, a viability, T/C [2] of 90.8% and a viability, T/C (second compound 0.00316 µM, first compound 0.316 µM) of 116%. It also gave a viability, T/C (second compound 0.00316 µM, first compound 1 µM) of 98.8%, a viability, T/C (second compound 0.00316 µM, first compound 3.16 µM) of 101% and a viability, T/C (second compound 0.00316 µM, first compound 10 µM) of 97%. The viability, T/C [3] was 82%, the viability, T/C [4] was 99.4% and the viability, T/C (second compound 0.01 µM, first compound 0.316 µM) was 98%. The viability, T/C (second compound 0.01 µM, first compound 1 µM) was 89.9%, the viability, T/C (second compound 0.01 µM, first compound 3.16 µM) was 93.6% and the viability, T/C (second compound 0.01 µM, first compound 10 µM) was 103%. The viability, T/C [5] was 52%, the viability, T/C [6] was 60.2% and the viability, T/C (second compound 0.0316 µM, first compound 0.316 µM) was 66%. The viability, T/C (second compound 0.0316 µM, first compound 1 µM) was 79.2%, the viability, T/C (second compound 0.0316 µM, first compound 3.16 µM) was 87.2% and the viability, T/C (second compound 0.0316 µM, first compound 10 µM) was 92.6%. It also gave a viability, T/C [7] of 24.5%, a viability, T/C [8] of 34.4% and a viability, T/C (second compound 0.1 µM, first compound 0.316 µM) of 33.5%. For the same compound, the viability, T/C (second compound 0.1 µM, first compound 1 µM) was 42.1%, the viability, T/C (second compound 0.1 µM, first compound 3.16 µM) was 37.2% and the viability, T/C (second compound 0.1 µM, first compound 10 µM) was 34.9%. The viability, T/C [9] was 9.32%, the viability, T/C [10] was 8.33% and the viability, T/C (second compound 0.316 µM, first compound 0.316 µM) was 10.5%. For the same compound, the viability, T/C (second compound 0.316 µM, first compound 1 µM) was 10.1%, the viability, T/C (second compound 0.316 µM, first compound 3.16 µM) was 11.6% and the viability, T/C (second compound 0.316 µM, first compound 10 µM) was 7.98%. For the same compound, the viability, T/C [11] was 3.32%, the viability, T/C [12] was 4.63% and the viability, T/C (second compound 1 µM, first compound 0.316 µM) was 3.78%. It also gave a viability, T/C (second compound 1 µM, first compound 1 µM) of 3.95%, a viability, T/C (second compound 1 µM, first compound 3.16 µM) of 3.61% and a viability, T/C (second compound 1 µM, first compound 10 µM) of 1.93%.
